Article PMC8958505, “Discovery of Potential Neuroprotective Agents against Paclitaxel-Induced Peripheral Neuropathy” (Journal of Medicinal Chemistry, 2022)
Structures can show the parent of a compound that is named as a salt.

Key:
[1] = tested on: C57BL/6 mice; test: Rotarod performance test (motor coordination); type: in vivo, mouse; conditions: pretreated CN016 + paclitaxel
Experimental: Three behavioral models of paclitaxel-induced neuropathy were used to verify the neuroprotective effect of CN016. Namely, thermal and mechanical nociceptive reactions described below were evaluated by tail immersion and von Frey filament tests, respectively, and motor coordination was assessed with the rotarod performance test (Supporting Information, Figure S1A,B). To mimic the clinical therapeutic regimen, CN016 (5, 10 and 20 mg/kg) was administrated to 7-week-old female C57BL/6 mice by intraperitoneal injection (IP) 1 h prior to each injection of paclitaxel (4.5 mg/kg) on four alternate days (days 1, 3, 5, and 7). Each test’s basal level was recorded before treatment, and additional sessions of behavior tests were performed weekly for five weeks (Figure 4A).
The baseline of every neurological behavior test was measured in 6-week-old C57BL/6J female mice prior to treatment. […] Mechanical hyperalgesia was evaluated by using von Frey filament (#2390, IITC Inc., USA), thermal sensitivity was determined by the tail immersion assay (water temperature: 48–49 °C), and motor coordination was assessed by rotarod (#7750, Ugo Basile Biological Research Apparatus, Italy). After the first drug implantation, the body weight was recorded every 6 days throughout the entire experiment.

[2] = Pharmacokinetics after intravenous injection; type: in vivo; conditions: male, mouse, plasma, 5 mg/kg IV, ICR mice, mean ± SD (n = 3)
Experimental: Male ICR mice weighed (29–33 g) were obtained from BioLASCO (Taiwan Co., Ltd., Ilan, Taiwan). The animal studies were performed according to NHRI institutional animal care and committee-approved procedures. Food and water were available ad libitum throughout the experiment. A single 5.0 mg/kg dose of CN016 was dissolved in normal saline and was separately administered to mice intravenously. The groups consisted of three mice for each time point. At times 0.03, 0.08, 0.25, 0.5, 1, 2, 4, 6, 8, 16, and 24 h after dosing, blood was collected from groups of three mice at each time point by cardiac puncture. Plasma was separated from blood and stored in a freezer (−80 °C) before LC/MS/MS analysis. In addition, pharmacokinetic analysis of CN016 following intraperitoneal administration (IP, 5 mg/kg) is provided in Figure S2 (Supporting Information).

[3] = target: T1, CYP 2C19 (Homo sapiens, UniProt P33261); test: Cytochrome P450 testing, CYP 2C19; type: in vitro ADME; conditions: mephenytoin 4-hydroxylation; read-out: Concentration of inhibition (IC50), CYP 2C19
T1 construct: host or cells: baculovirus-infected insect cells (supersomes)
Excerpt: Cytochrome P450 testing of CN016
The effects of CN016 on the activity of six specific human liver cytochrome P450 isozymes (CYP 1A2, 2C9, 2C19, 2D6, 2E1, 3A4) expressed in baculovirus-infected insect cell supersomes were studied. The reactions used to measure the activity of these enzymes were phenacetin O-deethylation (1A2), diclofenac 4-hydroxylation (2C9), mephenytoin 4-hydroxylation (2C19), dextromethorphan O-demethylation (2D6), chlorzoxazone 6-hydroxylation (2E1) and testosterone 6-hydroxylation (3A4).
Furafylline, sulfaphenazole, tranylcypromine, quinidine, diethyldithiocarbamate and azamulin were used as reference inhibitors of these enzymes. Incubation mixtures containing no CN016 or reference inhibitors were used as controls. The tested result […]
Table S4. Result of Cytochrome P450 testing of CN016

[4] = target: Adrenergic α1A (Homo sapiens, UniProt P35348); test: LeadProfilingScreen: Adrenergic α1A; type: binding
Adrenergic α1A, sequence (P35348 whole entry): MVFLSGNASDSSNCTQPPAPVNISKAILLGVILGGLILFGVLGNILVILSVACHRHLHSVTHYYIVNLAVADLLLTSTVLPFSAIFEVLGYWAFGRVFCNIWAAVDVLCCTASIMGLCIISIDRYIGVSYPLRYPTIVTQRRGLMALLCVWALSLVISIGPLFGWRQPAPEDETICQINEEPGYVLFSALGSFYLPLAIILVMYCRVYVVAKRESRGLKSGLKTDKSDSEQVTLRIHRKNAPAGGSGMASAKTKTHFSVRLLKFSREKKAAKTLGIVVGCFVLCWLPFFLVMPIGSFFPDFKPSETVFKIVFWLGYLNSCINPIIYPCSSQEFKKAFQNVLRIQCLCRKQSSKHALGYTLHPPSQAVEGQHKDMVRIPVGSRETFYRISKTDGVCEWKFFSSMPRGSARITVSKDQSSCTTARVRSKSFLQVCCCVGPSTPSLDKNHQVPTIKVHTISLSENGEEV

[5] = target: Adrenergic β2 (Homo sapiens, UniProt P07550); test: LeadProfilingScreen: Adrenergic β2; type: binding; conditions: read-out: Inhibition (%), Adrenergic β2
Adrenergic β2, sequence (P07550 whole entry): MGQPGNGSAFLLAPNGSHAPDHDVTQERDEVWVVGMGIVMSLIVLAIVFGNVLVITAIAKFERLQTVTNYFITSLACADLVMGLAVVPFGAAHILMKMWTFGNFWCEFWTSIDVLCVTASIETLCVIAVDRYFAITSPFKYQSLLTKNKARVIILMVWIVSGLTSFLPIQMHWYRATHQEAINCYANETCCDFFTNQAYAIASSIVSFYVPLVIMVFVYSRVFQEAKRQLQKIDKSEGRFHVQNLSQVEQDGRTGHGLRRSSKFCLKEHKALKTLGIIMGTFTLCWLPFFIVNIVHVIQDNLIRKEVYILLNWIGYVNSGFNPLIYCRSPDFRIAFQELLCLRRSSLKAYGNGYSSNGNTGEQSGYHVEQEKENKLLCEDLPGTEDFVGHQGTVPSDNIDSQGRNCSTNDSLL
Excerpt: (§1) LeadProfilingScreen (Total # of Assays: 67)
(§2) To evaluate, in LeadProfilingScreen, the activity of test compound CN168 (Panlabs # 1251879). […]
(§3) Summary of Significant Results
(§4) Biochemical assay results are presented as the percent inhibition of specific binding or activity throughout the report.
(§5) All other results are expressed in terms of that assay's quantitation method.
(§6) • For primary assays, only the lowest concentration with a significant response judged by the assays' criteria, is […]
(§7) • Where applicable, either the secondary assay results with the lowest dose/concentration meeting the significance […]
(§8) • Unless otherwise requested, primary screening in duplicate with quantitative data (e.g., IC50 ± SEM, Ki ± SEM and nH) are shown where applicable for individual requested assays. In screening packages, primary screening in duplicate with semi-quantitative data (e.g., estimated IC50, Ki and nH) are shown where applicable (concentration range of 4 log units); available secondary functional assays are carried out ([…]) and MEC or MIC determined only if active in primary assays >50% at 1 log unit below initial test concentration. […]

[6] = tested on: Calcium Channel L-Type, Benzothiazepine; test: LeadProfilingScreen: Calcium Channel L-Type, Benzothiazepine; type: binding, rat; conditions: 10 μM
[7] = target: Dopamine D1 (Homo sapiens, UniProt P21728); test: LeadProfilingScreen: Dopamine D1; type: binding
Dopamine D1, sequence (P21728 whole entry): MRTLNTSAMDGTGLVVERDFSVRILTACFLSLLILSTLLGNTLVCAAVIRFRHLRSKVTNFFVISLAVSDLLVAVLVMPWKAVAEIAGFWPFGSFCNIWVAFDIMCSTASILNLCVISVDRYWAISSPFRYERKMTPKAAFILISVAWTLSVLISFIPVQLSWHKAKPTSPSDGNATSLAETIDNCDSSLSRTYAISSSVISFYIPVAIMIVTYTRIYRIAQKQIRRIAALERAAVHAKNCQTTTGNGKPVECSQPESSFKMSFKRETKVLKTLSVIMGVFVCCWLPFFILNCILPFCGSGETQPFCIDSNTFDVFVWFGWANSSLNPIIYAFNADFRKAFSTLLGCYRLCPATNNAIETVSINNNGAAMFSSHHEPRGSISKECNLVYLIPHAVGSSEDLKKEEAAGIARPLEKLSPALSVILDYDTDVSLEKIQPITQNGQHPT

[8] = target: Glucocorticoid (Homo sapiens, UniProt P04150); test: LeadProfilingScreen: Glucocorticoid; type: binding
Glucocorticoid, sequence (P04150 whole entry): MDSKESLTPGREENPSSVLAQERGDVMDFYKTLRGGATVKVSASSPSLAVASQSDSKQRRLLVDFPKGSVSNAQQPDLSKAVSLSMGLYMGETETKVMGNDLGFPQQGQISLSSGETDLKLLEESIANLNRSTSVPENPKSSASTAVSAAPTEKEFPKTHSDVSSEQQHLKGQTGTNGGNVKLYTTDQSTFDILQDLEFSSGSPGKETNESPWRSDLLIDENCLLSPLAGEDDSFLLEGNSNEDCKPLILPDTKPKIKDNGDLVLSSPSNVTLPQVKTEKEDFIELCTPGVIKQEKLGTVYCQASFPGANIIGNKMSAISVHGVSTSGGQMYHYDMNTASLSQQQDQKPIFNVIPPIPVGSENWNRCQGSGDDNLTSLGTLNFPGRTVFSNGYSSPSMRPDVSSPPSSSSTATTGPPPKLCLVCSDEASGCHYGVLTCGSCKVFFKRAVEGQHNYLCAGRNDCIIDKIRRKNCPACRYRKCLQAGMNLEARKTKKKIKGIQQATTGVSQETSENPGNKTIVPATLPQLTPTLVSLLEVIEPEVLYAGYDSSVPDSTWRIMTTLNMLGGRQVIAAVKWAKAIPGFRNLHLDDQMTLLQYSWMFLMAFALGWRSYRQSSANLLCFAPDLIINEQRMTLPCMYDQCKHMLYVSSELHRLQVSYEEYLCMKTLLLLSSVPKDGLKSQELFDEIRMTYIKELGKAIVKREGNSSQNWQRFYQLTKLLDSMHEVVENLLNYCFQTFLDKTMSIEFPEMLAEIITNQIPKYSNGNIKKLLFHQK

[9] = tested on: Glutamate, Kainate; test: LeadProfilingScreen: Glutamate, Kainate; type: binding, rat; conditions: 10 μM
[10] = tested on: Glutamate, NMDA, Agonism; test: LeadProfilingScreen: Glutamate, NMDA, Agonism; type: binding, rat; conditions: 10 μM
[11] = target: Muscarinic M1 (Homo sapiens, UniProt P11229); test: LeadProfilingScreen: Muscarinic M1; type: binding
[12] = tested on: Phorbol Ester; test: LeadProfilingScreen: Phorbol Ester; type: binding, mouse; conditions: 10 μM
[13] = target: Potassium Channel [KATP] (Cricetus cricetus, UniProt Q09427); test: LeadProfilingScreen: Potassium Channel [KATP]; type: binding, hamster; conditions: read-out: Inhibition (%), Potassium Channel [KATP]
Potassium Channel [KATP], sequence (Q09427 whole entry): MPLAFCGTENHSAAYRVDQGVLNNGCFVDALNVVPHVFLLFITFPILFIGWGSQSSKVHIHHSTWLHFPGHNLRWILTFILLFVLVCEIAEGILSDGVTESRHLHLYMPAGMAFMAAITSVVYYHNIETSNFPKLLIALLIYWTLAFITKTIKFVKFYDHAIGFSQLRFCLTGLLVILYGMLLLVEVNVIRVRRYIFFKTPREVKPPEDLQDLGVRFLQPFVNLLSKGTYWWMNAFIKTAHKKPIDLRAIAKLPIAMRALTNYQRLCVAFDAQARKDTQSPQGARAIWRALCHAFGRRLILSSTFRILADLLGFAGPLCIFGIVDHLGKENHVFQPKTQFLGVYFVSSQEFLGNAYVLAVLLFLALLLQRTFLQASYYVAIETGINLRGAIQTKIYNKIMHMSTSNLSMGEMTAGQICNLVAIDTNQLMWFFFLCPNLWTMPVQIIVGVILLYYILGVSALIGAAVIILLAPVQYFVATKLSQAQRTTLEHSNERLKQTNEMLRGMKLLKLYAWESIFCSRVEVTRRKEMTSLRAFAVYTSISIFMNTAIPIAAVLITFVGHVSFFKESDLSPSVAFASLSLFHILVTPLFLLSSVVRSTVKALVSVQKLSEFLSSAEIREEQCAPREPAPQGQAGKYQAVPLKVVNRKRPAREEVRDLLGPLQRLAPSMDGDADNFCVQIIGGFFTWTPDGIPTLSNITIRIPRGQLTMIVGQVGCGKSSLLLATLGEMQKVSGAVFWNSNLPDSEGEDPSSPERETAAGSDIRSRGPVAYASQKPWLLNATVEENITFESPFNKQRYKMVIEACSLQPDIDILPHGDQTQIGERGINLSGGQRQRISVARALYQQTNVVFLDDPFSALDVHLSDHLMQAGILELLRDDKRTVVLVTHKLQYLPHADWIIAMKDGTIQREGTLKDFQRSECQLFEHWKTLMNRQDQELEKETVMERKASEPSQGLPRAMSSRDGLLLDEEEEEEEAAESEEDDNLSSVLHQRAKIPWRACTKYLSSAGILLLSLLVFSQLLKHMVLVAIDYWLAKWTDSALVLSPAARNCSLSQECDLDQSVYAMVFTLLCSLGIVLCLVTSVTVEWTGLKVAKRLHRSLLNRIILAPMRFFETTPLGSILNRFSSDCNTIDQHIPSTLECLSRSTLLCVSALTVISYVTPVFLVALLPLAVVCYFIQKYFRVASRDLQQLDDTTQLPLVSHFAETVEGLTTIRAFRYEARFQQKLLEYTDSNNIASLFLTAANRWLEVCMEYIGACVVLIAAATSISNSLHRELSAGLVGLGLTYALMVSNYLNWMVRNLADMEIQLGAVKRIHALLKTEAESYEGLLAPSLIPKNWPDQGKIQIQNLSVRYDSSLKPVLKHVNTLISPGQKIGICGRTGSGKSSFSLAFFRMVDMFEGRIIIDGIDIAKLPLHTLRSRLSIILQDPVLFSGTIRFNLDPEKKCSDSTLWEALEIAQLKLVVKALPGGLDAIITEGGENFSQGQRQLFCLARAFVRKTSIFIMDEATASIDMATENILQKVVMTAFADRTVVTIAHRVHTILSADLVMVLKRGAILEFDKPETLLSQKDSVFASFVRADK
Excerpt: as §1, §2, §3, §4, §5, §6, §7, §8

[14] = tested on: Purinergic P2X; test: LeadProfilingScreen: Purinergic P2X; type: binding, rat; conditions: 10 μM
[15] = tested on: Purinergic P2Y, Non-Selective; test: LeadProfilingScreen: Purinergic P2Y, Non-Selective; type: binding, rat; conditions: 10 μM
[16] = tested on: Rolipram; test: LeadProfilingScreen: Rolipram; type: binding, rat; conditions: 10 μM
[17] = target: Serotonin (5-Hydroxytryptamine) 5-HT3 (Homo sapiens, UniProt P46098); test: LeadProfilingScreen: Serotonin 5-HT3; type: binding
Serotonin (5-Hydroxytryptamine) 5-HT3, sequence (P46098 24-478): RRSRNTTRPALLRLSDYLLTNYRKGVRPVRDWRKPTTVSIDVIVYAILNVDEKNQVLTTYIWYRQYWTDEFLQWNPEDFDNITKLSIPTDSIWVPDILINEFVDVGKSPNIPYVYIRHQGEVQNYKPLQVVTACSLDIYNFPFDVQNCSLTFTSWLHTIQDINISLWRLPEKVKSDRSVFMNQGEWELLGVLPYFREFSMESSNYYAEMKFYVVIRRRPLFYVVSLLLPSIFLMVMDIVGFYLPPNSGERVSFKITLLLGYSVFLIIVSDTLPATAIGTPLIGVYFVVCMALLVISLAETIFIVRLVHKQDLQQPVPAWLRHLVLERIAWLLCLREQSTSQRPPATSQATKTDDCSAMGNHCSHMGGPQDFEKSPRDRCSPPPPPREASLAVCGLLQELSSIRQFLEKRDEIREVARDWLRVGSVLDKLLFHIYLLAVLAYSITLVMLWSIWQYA

[18] = target: Sigma σ1 (Homo sapiens, UniProt Q99720); test: LeadProfilingScreen: Sigma σ1; type: binding
Sigma σ1, sequence (Q99720 whole entry): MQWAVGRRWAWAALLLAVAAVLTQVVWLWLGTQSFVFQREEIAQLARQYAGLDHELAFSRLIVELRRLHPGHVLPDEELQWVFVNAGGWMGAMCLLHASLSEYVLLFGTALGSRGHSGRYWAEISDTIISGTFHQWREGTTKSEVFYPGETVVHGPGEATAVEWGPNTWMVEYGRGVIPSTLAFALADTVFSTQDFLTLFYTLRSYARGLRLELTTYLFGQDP

[19] = target: Transporter, Serotonin (5-Hydroxytryptamine) (SERT) (Homo sapiens, UniProt P31645); test: LeadProfilingScreen: Transporter, Serotonin (SERT); type: binding
Transporter, Serotonin (5-Hydroxytryptamine) (SERT), sequence (P31645 whole entry): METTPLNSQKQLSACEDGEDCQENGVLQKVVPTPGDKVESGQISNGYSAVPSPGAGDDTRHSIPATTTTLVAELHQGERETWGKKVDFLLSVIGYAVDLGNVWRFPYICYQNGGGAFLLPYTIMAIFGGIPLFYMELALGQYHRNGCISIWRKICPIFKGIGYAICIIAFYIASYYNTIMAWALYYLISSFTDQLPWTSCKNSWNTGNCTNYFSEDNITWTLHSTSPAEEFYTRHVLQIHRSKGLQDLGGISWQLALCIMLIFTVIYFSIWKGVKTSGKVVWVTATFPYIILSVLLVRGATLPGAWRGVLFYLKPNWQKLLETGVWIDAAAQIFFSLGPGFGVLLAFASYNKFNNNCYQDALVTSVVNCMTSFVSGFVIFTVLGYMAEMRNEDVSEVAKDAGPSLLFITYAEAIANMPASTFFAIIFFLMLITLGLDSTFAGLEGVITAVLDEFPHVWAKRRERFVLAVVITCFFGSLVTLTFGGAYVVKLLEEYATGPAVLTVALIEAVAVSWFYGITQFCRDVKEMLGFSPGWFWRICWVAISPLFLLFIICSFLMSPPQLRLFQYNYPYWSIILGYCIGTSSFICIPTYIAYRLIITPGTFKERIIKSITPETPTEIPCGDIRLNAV

## O=P(O)(O)CCN1CCC(Nc2cc(N3CCOCC3)nc(NCc3cn(CCCO)nn3)n2)CC1 [CN016, {2-[4-(2-{[1-(3-Hydroxy-propyl)-1H-[1,2,3]triazol-4-ylmethyl]-amino}-6-morpholin-4-yl-pyrimidin-4-ylamino)-piperidin-1-yl]-ethyl}-phosphonic Acid Hydrobromide Salt]
[1]
  motor coordination (rotarod test): neither paclitaxel treatment nor pretreated CN016 affected motor coordination
[2]
  AUC(0-t) at 24 h: 6980 ± 1850 ng·h/mL
  clearance at 24 h: 12.8 ± 2.9 mL/min/kg
  half-life at 24 h: 12.8 ± 3.4 h
[2]; read-out: Vss
  Vd at 24 h: 0.8 ± 0.5 L/kg
[3]
  IC50: > 100 µM
[4]
  inhibition at 10 µM: -9%
[5]
  inhibition at 10 µM: -4%
[6]
  Inhibition (%), Calcium Channel L-Type, Benzothiazepine: -13%
[7]
  inhibition at 10 µM: -2%
[8]
  inhibition at 10 µM: 14%
[9]
  Inhibition (%), Glutamate, Kainate: 0%
[10]
  Inhibition (%), Glutamate, NMDA, Agonism: -3%
[11]
  inhibition at 10 µM: 5%
[12]
  Inhibition (%), Phorbol Ester: -3%
[13]
  inhibition at 10 µM: -1%
[14]
  Inhibition (%), Purinergic P2X: -9%
[15]
  Inhibition (%), Purinergic P2Y: 9%
[16]
  Inhibition (%), Rolipram: 6%
[17]
  inhibition at 10 µM: -1%
[18]
  inhibition at 10 µM: 0%
[19]
  inhibition at 10 µM: -4%
